Biological target: T1, SeMet CtdP (Penicillium citrinum, UniProt Z9QVB9HE69)
T1 sequence (Z9QVB9HE69 1-348): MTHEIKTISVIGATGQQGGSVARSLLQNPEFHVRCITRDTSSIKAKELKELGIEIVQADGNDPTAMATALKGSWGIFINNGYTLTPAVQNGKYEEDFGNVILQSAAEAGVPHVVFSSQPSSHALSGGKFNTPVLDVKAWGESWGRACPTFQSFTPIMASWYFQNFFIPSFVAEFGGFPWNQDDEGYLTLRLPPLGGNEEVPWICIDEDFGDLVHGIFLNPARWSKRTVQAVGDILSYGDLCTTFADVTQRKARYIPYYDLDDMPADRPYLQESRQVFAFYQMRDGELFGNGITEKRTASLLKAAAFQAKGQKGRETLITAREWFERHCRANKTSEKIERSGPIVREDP
Experiment: X-ray crystal structure, […] Å, SeMet SAD
Type: binding
Details: bound in all four chains; product 10 in chains A, B, D

In the case of `NC(=O)c1ccc[n+]([C@@H]2O[C@H](COP(=O)(O)OP(=O)(O)OC[C@H]3O[C@@H](n4cnc5c(N)ncnc54)[C@H](OP(=O)(O)O)[C@@H]3O)[C@@H](O)[C@H]2O)c1` [NADP^+], the “X-ray crystal structure, 2.5 Å, SeMet SAD” value is reported as “four chains (A-D) in the asymmetric unit, all in complex with NADP^+”.

Source: paper PMC10073347 (Nature chemistry, 2023)
